Measurements from patent US9247750B2, “Polyenylcyclopropanecarboxylic esters with high insecticidal activity” (Endura S.P.A., priority 2007, dated 2016).

Tests used:
Type in all cases: in vivo
Culex quinquefasciatus [1] = assay: Insecticide effectiveness in the vapour phase against mosquitoes, impregnated paper unit in 20 m^3 room (Example 9); conditions: 5 mg/unit; for % mortality 24 h: 24th hour from start of test; for % Knock-down 8 h: at end of 8th hour; for Knock-down time KT10 / Knock-down time KT50 / Knock-down time KT90: average of 3 cages
Protocol: (§1) Test units consisting of a paper support 20 cm×10 cm in size were impregnated with the compound of examples 3, 7 and 8 and, for comparative purposes, with the reference compounds transfluthrin and metofluthrin, at an amount of 5.00 mg/unit for each compound (pure). Using a common laboratory stand, the test unit was placed at a height of about 30 cm from the ground along one side of a 20 m^3 room (L 3.00 m×D 2.49 m×H 2.69 m). In order to homogenize the insecticidal air within the room, a small electric fan was placed on the floor diagonal to the surface of the unit, in the nearest corner at a distance of about 50 cm from the unit. Three metal cages (L 8.4 cm×Ø 8.0 cm×mesh 1.0 mm) for every mosquito species, each containing 20 3-4 day old individuals of mixed sex, were placed along the other three sides of the room, at a height of 1.80 m from the ground and at a distance of 0.45 m from the respective walls. During the test the room was kept closed and temperature and humidity were controlled (T 23-26° C., RH 49-61%). The fan was switched on and left on for 8 continuous hours. The times needed to reach 10%, 50% and 90% insect knock-down (KT10, KT50 and KT90, respectively) were recorded.
(§2) Every 2 hours and up to the 6th hour after the fan was switched on, new cages were introduced containing insects (set of 3 cages for each species).
(§3) At the end of the 8th hour, the percentage of insects knocked down in all the cages was determined, then the insects were removed from the room and transferred into an uncontaminated atmosphere within closed containers containing a sugary solution. The percentage mortality was recorded at the 24th hour from the start of the test.
(§4) The results obtained are summarized in tables 1 and 2 and the data are averages for the 3 cages.

Aedes aegypti [2] = assay: as above; conditions: 5 mg/unit; for % mortality 24 h: 24th hour from start of test; for % Knock-down 8 h: at end of 8th hour; for Knock-down time KT10 / Knock-down time KT50 / Knock-down time KT90: average of 3 cages
Protocol: as §1, §2, §3, §4

Blattella germanica = assay: Effectiveness of residual insecticide on surfaces (glazed tiles) against cockroaches (Example 6); conditions: for Time to reach 100% knock-down followed by death: 50 mg/m^2 on glazed tiles
Protocol: Solutions of the compound of example 3 in acetone and, for comparison, of the reference compounds Transfluthrin and Metofluthrin were applied from a distance of 12 cm onto glazed tiles (Ostara model, 15×15 cm=225 cm^2) by means of a suitable glass sprayer, so as to obtain an applied amount of pure compound equal to 50 mg/m^2. After treatment the tiles were transferred to and maintained in a closed test room at controlled temperature and humidity (24-25° C., RH 50-60%). Glass rings (H 5.5 cm×Ø 9.5 cm), with their internal surface treated with talc, and each containing 5 cockroaches, were positioned at the centre of the tiles for each of the assessment times of 24 hours, 3, 7, 10 and 14 days following treatment. For each assessment day, the insects were maintained on the surface for 24 hours and the time (hours, minutes) necessary to attain 100% knock-down followed by death, or percentage knock-down at the end of 24 hours, were recorded.

Culex quinquefasciatus [3] = assay: Insecticide effectiveness in the vapour phase against mosquitoes, impregnated paper unit in 20 m^3 room (Example 5); conditions: 5 mg/unit; for % mortality 24 h: 24th hour from start of test; for % Knock-down 8 h: at end of 8th hour; for Knock-down time KT10 / Knock-down time KT50 / Knock-down time KT90: average of 3 cages
Protocol: (§5) Test units consisting of a paper support 20 cm×10 cm in size were impregnated with the compound of example 3 and, for comparative purposes, with the reference compounds transfluthrin and metofluthrin, at an amount of 5.00 mg/unit for each compound (pure).
(§6) Using a common laboratory stand, the test unit was placed at a height of about 30 cm from the ground along one side of a 20 m^3 room (L 3.00 m×D 2.49 m×H 2.69 m). In order to homogenize the insecticidal air within the room, a small electric fan was placed on the floor diagonal to the surface of the unit, in the is nearest corner at a distance of about 50 cm from the unit. Three metal cages (L 8.4 cm×Ø 8.0 cm×mesh 1.0 mm) for every mosquito species, each containing 20 3-4 day old individuals of mixed sex, were placed along the other three sides of the room, at a height of 1.80 m from the ground and at a distance of 0.45 m from the respective walls. During the test the room was kept closed and temperature and humidity were controlled (T 23-26° C., RH 49-61%).
(§7) The fan was switched on and left on for 8 continuous hours. The times needed to reach 10%, 50% and 90% insect knock-down (KT10, KT50 and KT90, respectively) were recorded.
as §2, §3, §4

Aedes aegypti [4] = assay: as above; conditions: 5 mg/unit; for % mortality 24 h: 24th hour from start of test; for % Knock-down 8 h: at end of 8th hour; for Knock-down time KT10 / Knock-down time KT50 / Knock-down time KT90: average of 3 cages
Protocol: as §5, §6, §7, §2, §3, §4

SMILES: C=CC=C[C@@H]1[C@@H](C(=O)OCc2c(F)c(F)cc(F)c2F)C1(C)C (mixture of isomers) [Example 3, 2,3,5,6-tetrafluorobenzyl(1R,3R)-3-((E/Z)-Buta-1,3-dienyl)-2,2-dimethylcyclopropane-1-carboxylate]
- % mortality 24 h (Culex quinquefasciatus [1]; insect exposure after 0 hours): 100%
- % Knock-down 8 h (Culex quinquefasciatus [1]; insect exposure after 0 hours): 100%
- Knock-down time KT10 (Culex quinquefasciatus [1]; insect exposure after 0 hours): 23 min
- Knock-down time KT50 (Culex quinquefasciatus [1]; insect exposure after 0 hours): 28 min
- Knock-down time KT90 (Culex quinquefasciatus [1]; insect exposure after 0 hours): 35 min
- % mortality 24 h (Culex quinquefasciatus [1]; insect exposure after 2 hours): 100%
- % Knock-down 8 h (Culex quinquefasciatus [1]; insect exposure after 2 hours): 100%
- Knock-down time KT10 (Culex quinquefasciatus [1]; insect exposure after 2 hours): 7 min
- Knock-down time KT50 (Culex quinquefasciatus [1]; insect exposure after 2 hours): 11 min
- Knock-down time KT90 (Culex quinquefasciatus [1]; insect exposure after 2 hours): 15 min
- % mortality 24 h (Culex quinquefasciatus [1]; insect exposure after 4 hours): 100%
- % Knock-down 8 h (Culex quinquefasciatus [1]; insect exposure after 4 hours): 100%
- Knock-down time KT10 (Culex quinquefasciatus [1]; insect exposure after 4 hours): 8 min
- Knock-down time KT50 (Culex quinquefasciatus [1]; insect exposure after 4 hours): 10 min
- Knock-down time KT90 (Culex quinquefasciatus [1]; insect exposure after 4 hours): 14 min
- % mortality 24 h (Aedes aegypti [2]; insect exposure after 0 hours): 100%
- % Knock-down 8 h (Aedes aegypti [2]; insect exposure after 0 hours): 100%
- Knock-down time KT10 (Aedes aegypti [2]; insect exposure after 0 hours): 16 min
- Knock-down time KT50 (Aedes aegypti [2]; insect exposure after 0 hours): 20 min
- Knock-down time KT90 (Aedes aegypti [2]; insect exposure after 0 hours): 26 min
- % mortality 24 h (Aedes aegypti [2]; insect exposure after 2 hours): 100%
- % Knock-down 8 h (Aedes aegypti [2]; insect exposure after 2 hours): 100%
- Knock-down time KT10 (Aedes aegypti [2]; insect exposure after 2 hours): 5 min
- Knock-down time KT50 (Aedes aegypti [2]; insect exposure after 2 hours): 8 min
- Knock-down time KT90 (Aedes aegypti [2]; insect exposure after 2 hours): 11 min
- % mortality 24 h (Aedes aegypti [2]; insect exposure after 4 hours): 100%
- % Knock-down 8 h (Aedes aegypti [2]; insect exposure after 4 hours): 100%
- Knock-down time KT10 (Aedes aegypti [2]; insect exposure after 4 hours): 5 min
- Knock-down time KT50 (Aedes aegypti [2]; insect exposure after 4 hours): 8 min
- Knock-down time KT90 (Aedes aegypti [2]; insect exposure after 4 hours): 12 min
- Time to reach 100% knock-down followed by death (Blattella germanica; 1 day after treatment): 15′ minutes
- Time to reach 100% knock-down followed by death (Blattella germanica; 3 days after treatment): 15′ minutes
- Time to reach 100% knock-down followed by death (Blattella germanica; 7 days after treatment): 15′ minutes
- Time to reach 100% knock-down followed by death (Blattella germanica; 10 days after treatment): 15′ minutes
- Time to reach 100% knock-down followed by death (Blattella germanica; 14 days after treatment): 15′ minutes
- time of exposure to total knock-down (100%) (Blattella germanica; table 3): ≤ 15 min
- % mortality 24 h (Culex quinquefasciatus [3]; insect exposure after 0 hours): 100%
- % Knock-down 8 h (Culex quinquefasciatus [3]; insect exposure after 0 hours): 100%
- Knock-down time KT10 (Culex quinquefasciatus [3]; insect exposure after 0 hours): 20 min
- Knock-down time KT50 (Culex quinquefasciatus [3]; insect exposure after 0 hours): 23 min
- Knock-down time KT90 (Culex quinquefasciatus [3]; insect exposure after 0 hours): 31 min
- % mortality 24 h (Culex quinquefasciatus [3]; insect exposure after 2 hours): 100%
- % Knock-down 8 h (Culex quinquefasciatus [3]; insect exposure after 2 hours): 100%
- Knock-down time KT10 (Culex quinquefasciatus [3]; insect exposure after 2 hours): 6 min
- Knock-down time KT50 (Culex quinquefasciatus [3]; insect exposure after 2 hours): 8 min
- Knock-down time KT90 (Culex quinquefasciatus [3]; insect exposure after 2 hours): 12 min
- % mortality 24 h (Culex quinquefasciatus [3]; insect exposure after 4 hours): 100%
- % Knock-down 8 h (Culex quinquefasciatus [3]; insect exposure after 4 hours): 100%
- Knock-down time KT10 (Culex quinquefasciatus [3]; insect exposure after 4 hours): 6 min
- Knock-down time KT50 (Culex quinquefasciatus [3]; insect exposure after 4 hours): 10 min
- Knock-down time KT90 (Culex quinquefasciatus [3]; insect exposure after 4 hours): 18 min
- % mortality 24 h (Aedes aegypti [4]; insect exposure after 0 hours): 100%
- % Knock-down 8 h (Aedes aegypti [4]; insect exposure after 0 hours): 100%
- Knock-down time KT10 (Aedes aegypti [4]; insect exposure after 0 hours): 16 min
- Knock-down time KT50 (Aedes aegypti [4]; insect exposure after 0 hours): 19 min
- Knock-down time KT90 (Aedes aegypti [4]; insect exposure after 0 hours): 25 min
- % mortality 24 h (Aedes aegypti [4]; insect exposure after 2 hours): 100%
- % Knock-down 8 h (Aedes aegypti [4]; insect exposure after 2 hours): 100%
- Knock-down time KT10 (Aedes aegypti [4]; insect exposure after 2 hours): 4 min
- Knock-down time KT50 (Aedes aegypti [4]; insect exposure after 2 hours): 6 min
- Knock-down time KT90 (Aedes aegypti [4]; insect exposure after 2 hours): 9 min
- % mortality 24 h (Aedes aegypti [4]; insect exposure after 4 hours): 100%
- % Knock-down 8 h (Aedes aegypti [4]; insect exposure after 4 hours): 100%
- Knock-down time KT10 (Aedes aegypti [4]; insect exposure after 4 hours): 4 min
- Knock-down time KT50 (Aedes aegypti [4]; insect exposure after 4 hours): 6 min
- Knock-down time KT90 (Aedes aegypti [4]; insect exposure after 4 hours): 11 min
